# Patent US20050009840A1 (SUGEN, INC., priority 2003, published 2005)
# Target: T1, Met kinase domain (GST fusion protein) (Homo sapiens, UniProt P08581)
# T1 construct: Purified GST fusion protein containing the Met kinase domain
# Experiment: Met transphosphorylation assay (ELISA, poly(glu-tyr) substrate);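 also: Cell-free ELISA with plate-bound poly(Glu:Tyr 4:1) phosphorylated by GST-fused Met kinase domain plus ATP and Mn2+, phosphotyrosine detected by anti-phosphotyrosine antibody with HRP and ABTS read-out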
# Assay type: biochemical
# Conditions: read-out: Met IC50
# T1 sequence (P08581 1078-1345 limits assumed): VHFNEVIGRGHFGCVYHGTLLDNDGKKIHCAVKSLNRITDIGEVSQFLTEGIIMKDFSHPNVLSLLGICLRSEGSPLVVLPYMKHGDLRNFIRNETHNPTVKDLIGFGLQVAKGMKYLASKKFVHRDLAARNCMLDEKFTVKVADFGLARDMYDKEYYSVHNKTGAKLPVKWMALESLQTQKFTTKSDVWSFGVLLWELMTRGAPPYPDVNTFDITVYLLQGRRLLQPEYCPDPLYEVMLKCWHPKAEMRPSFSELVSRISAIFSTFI
row,Structure (SMILES),IC50 [nM]
1,"CC(Oc1nc(-c2cccc(C(=O)N3C[C@@H](C)N[C@@H](C)C3)c2)cnc1N)c1c(Cl)ccc(F)c1Cl (stereo partly drawn) [II-131, (3-{5-Amino-6-[1-(2,6-dichloro-3-fluoro-phenyl)-ethoxy]-pyrazin-2-yl}-phenyl)-((3R,5S)-3,5-dimethyl-piperazin-1-yl)-methanone]",120
2,"CC(Oc1nc(-c2cccc(C(=O)NC3CCN(C)CC3)c2)cnc1N)c1c(Cl)ccc(F)c1Cl (stereo not drawn) [II-132, 3-{5-Amino-6-[1-(2,6-dichloro-3-fluoro-phenyl)-ethoxy]-pyrazin-2-yl}-N-(1-methyl-piperidin-4-yl)-benzamide]",130
3,"CC(Oc1nc(-c2cccc(C(=O)NCCN3CCOCC3)c2)cnc1N)c1c(Cl)ccc(F)c1Cl (stereo not drawn) [II-134, 3-{5-Amino-6-[1-(2,6-dichloro-3-fluoro-phenyl)-ethoxy]-pyrazin-2-yl}-N-(2-morpholin-4-yl-ethyl)-benzamide]",210
4,"CC(Oc1nc(-c2cccc(C(=O)NCCCN3CCOCC3)c2)cnc1N)c1c(Cl)ccc(F)c1Cl (stereo not drawn) [II-135, 3-{5-Amino-6-[1-(2,6-dichloro-3-fluoro-phenyl)-ethoxy]-pyrazin-2-yl}-N-(3-morpholin-4-yl-propyl)-benzamide]",260
5,"CC(Oc1nc(-c2cccc(C(=O)N3CCC(NC4CC4)CC3)c2)cnc1N)c1c(Cl)ccc(F)c1Cl (stereo not drawn) [II-136, (3-{5-Amino-6-[1-(2,6-dichloro-3-fluoro-phenyl)-ethoxy]-pyrazin-2-yl}-phenyl)-(4-cyclopropylamino-piperidin-1-yl)-methanone]",150
6,"CC(Oc1nc(-c2cccc(C(=O)NC[C@H](O)CN3CCOCC3)c2)cnc1N)c1c(Cl)ccc(F)c1Cl (stereo partly drawn) [II-137, 3-{5-Amino-6-[1-(2,6-dichloro-3-fluoro-phenyl)-ethoxy]-pyrazin-2-yl}-N-((S)-2-hydroxy-3-morpholin-4-yl-propyl)-benzamide]",300
7,"CC(Oc1cc(-c2cccc(C(=O)N3CCC(N4CCCC4)CC3)c2)cnc1N)c1c(Cl)ccc(F)c1Cl (stereo not drawn) [II-139, (3-{6-Amino-5-[1-(2,6-dichloro-3-fluoro-phenyl)-ethoxy]-pyridin-3-yl}-phenyl)-(4-pyrrolidin-1-yl-piperidin-1-yl)-methanone]",71
8,"CC(Oc1nc(-c2ccc(C(=O)O)cc2)cnc1N)c1c(Cl)ccc(F)c1Cl (stereo not drawn) [II-145, 4-{5-Amino-6-[1-(2,6-dichloro-3-fluoro-phenyl)-ethoxy)-pyrazin-2-yl)benzoic acid]",1560
9,"CC(Oc1nc(-c2ccc(C(=O)N3CCC(NC4CC4)CC3)cc2)cnc1N)c1c(Cl)ccc(F)c1Cl (stereo not drawn) [II-147, (4-{5-Amino-6-[1-(2,6-dichloro-3-fluoro-phenyl)-ethoxy]-pyrazin-2-yl}-phenyl)-(4-cyclopropylamino-piperidin-1-yl)-methanone]",130
10,"CC(Oc1nc(-c2ccc(C(=O)NC[C@@H](O)CN3CCOCC3)cc2)cnc1N)c1c(Cl)ccc(F)c1Cl (stereo partly drawn) [II-149, 4-{5-Amino-6-[1-(2,6-dichloro-3-fluoro-phenyl)-ethoxy]-pyrazin-2-yl}-N-((R)-2-hydroxy-3-morpholin-4-yl-propyl)-benzamide]",130
11,"CC(Oc1nc(-c2ccc(C(=O)NC3CCN(C)CC3)cc2)cnc1N)c1c(Cl)ccc(F)c1Cl (stereo not drawn) [II-150, 4-{5-Amino-6-[1-(2,6-dichloro-3-fluoro-phenyl)-ethoxy]-pyrazin-2-yl}-N-(1-methyl-piperidin-4-yl)-benzamide]",68
12,"CC(Oc1nc(-c2ccc(C(=O)N3CCC(N4CCCC4)CC3)cc2)cnc1N)c1c(Cl)ccc(F)c1Cl (stereo not drawn) [II-152, (4-{5-Amino-6-[1-(2,6-dichloro-3-fluoro-phenyl)-ethoxy]-pyrazin-2-yl}-phenyl)-(4-pyrrolidin-1-yl-piperidin-1-yl)-methanone]",110
13,"CC(Oc1nc(-c2ccc(C(=O)N3CCN(C)CC3)cc2)cnc1N)c1c(Cl)ccc(F)c1Cl (stereo not drawn) [II-154, (4-{5-Amino-6-[1-(2,6-dichloro-3-fluoro-phenyl)-ethoxy]-pyrazin-2-yl}-phenyl)-(4-methyl-piperazin-1-yl)-methanone]",160

# The remaining lines, values ahead:
row,IC50 [nM],Structure (SMILES)
1,170,"CC(Oc1nc(-c2cccc(C(=O)NCCN3CCCC3)c2)cnc1N)c1c(Cl)ccc(F)c1Cl (stereo not drawn) [II-133, 3-{5-Amino-6-[1-(2,6-dichloro-3-fluoro-phenyl)-ethoxy]-pyrazin-2-yl}-N-(2-pyrrolidin-1-yl-ethyl)-benzamide]"
2,130,"CC(Oc1nc(-c2cccc(C(=O)NC[C@@H](O)CN3CCCC3)c2)cnc1N)c1c(Cl)ccc(F)c1Cl (stereo partly drawn) [II-138, 3-{5-Amino-6-[1-(2,6-dichloro-3-fluoro-phenyl)-ethoxy]-pyrazin-2-yl}-N-((R)-2-hydroxy-3-pyrrolidin-1-yl-propyl)-benzamide]"
3,350,"CCN(CC)CCS(=O)(=O)Nc1ccc(-c2cnc(N)c(OC(C)c3c(Cl)ccc(F)c3Cl)n2)cc1 (stereo not drawn) [II-140, 2-Diethylamino-ethanesulfonic acid (4-{5-amino-6-[1-(2,6-dichloro-3-fluoro-phenyl)-ethoxy]-pyrazin-2-yl}-phenyl)-amide]"
4,210,"CC(Oc1nc(-c2ccc(NS(=O)(=O)CCN3CCC(O)CC3)cc2)cnc1N)c1c(Cl)ccc(F)c1Cl (stereo not drawn) [II-141, 2-(4-Hydroxy-piperidin-1-yl)-ethanesulfonic acid (4-{5-amino-6-[1-(2,6-dichloro-3-fluoro-phenyl)-ethoxy]-pyrazin-2-yl}-phenyl)-amide]"
5,220,"CC(Oc1nc(-c2ccc(NS(=O)(=O)CCN(C)C)cc2)cnc1N)c1c(Cl)ccc(F)c1Cl (stereo not drawn) [II-142, 2-Dimethylamino-ethanesulfonic acid (4-{5-amino-6-[1-(2,6-dichloro-3-fluoro-phenyl)-ethoxy]-pyrazin-2-yl}-phenyl)-amide]"
6,190,"CC(Oc1nc(-c2ccc(NS(=O)(=O)CCN3CC[C@@H](O)C3)cc2)cnc1N)c1c(Cl)ccc(F)c1Cl (stereo partly drawn) [II-143, 2-((R)-3-Hydroxy-pyrrolidin-1-yl)-ethanesulfonic acid (4-{5-amino-6-[1-(2,6-dichloro-3-fluoro-phenyl)-ethoxy]-pyrazin-2-yl}-phenyl)-amide]"
7,360,"CC(Oc1nc(-c2ccc(NS(=O)(=O)CCN3CCCC3)cc2)cnc1N)c1c(Cl)ccc(F)c1Cl (stereo not drawn) [II-144, 2-Pyrrolidin-1-ylethanesulfonic acid (4-{5-amino-6-[1-(2,6-dichloro-3-fluoro-phenyl)-ethoxy]-pyrazin-2-yl}-phenyl)-amide]"
8,150,"CC(Oc1nc(-c2ccc(C(=O)NC[C@@H](O)CN3CCCC3)cc2)cnc1N)c1c(Cl)ccc(F)c1Cl (stereo partly drawn) [II-146, 4-{5-Amino-6-[1-(2,6-dichloro-3-fluoro-phenyl)-ethoxy]-pyrazin-2-yl}-N-((R)-2-hydroxy-3-pyrrolidin-1-yl-propyl)-benzamide]"
9,120,CC(Oc1nc(-c2ccc(C(=O)NC[C@H](O)CN3CCCC3)cc2)cnc1N)c1c(Cl)ccc(F)c1Cl (stereo partly drawn) [II-148]
10,180,"CC(Oc1nc(-c2ccc(C(=O)N3CCC[C@H]3CN3CCCC3)cc2)cnc1N)c1c(Cl)ccc(F)c1Cl (stereo partly drawn) [II-151, (4-{5-Amino-6-[1-(2,6-dichloro-3-fluoro-phenyl)-ethoxy]-pyrazin-2-yl}-phenyl)-((S)-2-pyrrolidin-1-ylmethyl-pyrrolidin-1-yl)-methanone]"
11,102,"CC(Oc1nc(-c2ccc(C(=O)NCCN3CCOCC3)cc2)cnc1N)c1c(Cl)ccc(F)c1Cl (stereo not drawn) [II-153, 4-{5-Amino-6-[1-(2,6-dichloro-3-fluoro-phenyl)-ethoxy]-pyrazin-2-yl}-N-(2-morpholin-4-yl-ethyl)-benzamide]"
